Measurements as given in patent US20240101548A1, “HYDROXAMATE COMPOUND, PREPARATION METHOD THEREFOR AND APPLICATION THEREOF” (SHENZHEN CHIPSCREEN BIOSCIENCES CO., LTD., priority 2020, published 2024).
Like-named read-outs stand apart in the source and are kept apart here.

How the values were obtained:
[1] = test system: IL-2-induced JAK1/JAK3 signal pathway; experiment: IL-2-induced proliferation of KHYG-1 cells (JAK1/JAK3 signal); type: cell-based, human; details: Homo sapiens, read-out: Inhibition activity IC50 on IL-2-induced JAK1/JAK3 signal pathway
From the text: The main physiological function of cytokine IL-2 is to stimulate and maintain the proliferation and differentiation of T cells. Generally, IL-2 dependent T cells cannot survive in in-vitro culture for a long time, but the addition of IL-2 can make them continue to proliferate. The signal pathway induced by IL-2 coupling with its receptor is mediated by JAK1/JAK3-STAT5, so the inhibitor of JAK1 and/or JAK3 can inhibit the proliferation of IL-2 dependent cells.
Human natural killer cell lymphoma cell line KHYG-1 was commercially available from Health Science Research Resources Bank (HSRRB), and relevant culture conditions referred to those from HSRRB.
The inhibition rate of the tested compound on IL-2-induced cell proliferation was calculated using Microsoft Excel.
After culture at 37° C. and 5% CO2 for 72 hours, alamarBlue™ Cell Viability Reagent was added to each well following the instructions.
(§1) The well in which neither compound nor cytokine was added was designated as 0% control well, and the fluorescence value in the wells in which the final concentration of compound was 0 was designated as 100% control. The inhibition activity C50 of the tested compound on JAK1/JAK3 could be calculated from the inhibition rate of the tested compound on IL-2-induced cell proliferation at different doses.

[2] = test system: EPO-induced JAK2 signal pathway; experiment: EPO-induced proliferation of UT-7 cells (JAK2 signal); type: cell-based, human; details: Homo sapiens, UT7; UT-7 cell proliferation, EPO 10 ng/mL, 72 hours; read-out: Inhibition activity IC50 on EPO-induced JAK2 signal pathway
Protocol: The cytokine EPO, i.e. erythropoietin, can promote the proliferation and division of erythroid progenitor cells, and the signal pathway induced by EPO coupling with its receptor is mediated by JAK2-STAT5.
Human promegakaryocytic leukemia cell line UT-7 was commercially available from Cell Resource Center, Institute of Basic Medicine, Chinese Academy of Medical Sciences. The culture medium was RPIM1640 containing 10% FBS, and EPO was added for a final concentration of 10 ng/mL.
The inhibition rate of the tested compound on EPO-induced cell proliferation was calculated using Microsoft Excel.
UT-7 cell line was inoculated in 96-well plate with flat bottom at 15000 cells per well, each well was added with 10 ng/mL of human recombinant EPO (Human EPO PEPROTECH 100-64-10UG), along with tested compound respectively for a final concentration of 0, 100, 1000 or 10000 nM. After culture at 37° C. and 5% CO2 for 72 hours, alamarBlue™ Cell Viability Reagent was added to each well following the instructions. After incubation at 37° C. for color reaction, the fluorescence value at Ex530/Em590 was detected using Tecan Spark™ 10M multimode microplate reader.
as §1, with “[…]” for “0%”, “100” for “100%”, “[…] ofthe” for “C50 of the”, “JAK2” for “JAK1/JAK3”, “ofthe” for “of the”, “EPO-induced” for “IL-2-induced”

[3] = KHYG-1 cell proliferation, IL-2 10 ng/mL, 72 hours

SMILES | IC50 [1, 3] [µM] | IC50 [2] [µM] | IC50 ([1]; KHYG-1, 72 h) [µM]
CONC(=O)c1cnc(Nc2ccc(F)cc2)cc1Nc1ccc(C)nc1N(C)S(C)(=O)=O [Example 64, 6-((4-fluorophenyl)amino)-N-methoxy-4-((6-methyl-2-(N-methylmethanesulfonamido)pyridin-3-yl)amino)nicotinamide] | > 10 | > 10 | 
CON(C)C(=O)c1cnc(Nc2cccc(F)n2)cc1Nc1ccccc1N(C)S(C)(=O)=O [Example 65, 6-((6-fluoropyridin-2-yl)amino)-N-methoxy-N-methyl-4-((2-(N-methylmethanesulfonamido)phenyl)amino)nicotinamide] |  | > 10 | > 10
CCONC(=O)c1cnc(Nc2nc(C)cc(C)n2)cc1Nc1ccc(C)cc1N(C)S(=O)(=O)C1CC1 [Example 66, 6-((4,6-dimethylpyrimidin-2-yl)amino)-N-ethoxy-4-((4-methyl-2-(N-methylcyclopropylsulfonamido)phenyl)amino)nicotinamide] | > 10 | > 10 | 
CONC(=O)c1c(Nc2ccc(C3CC3)cc2N(C)S(C)(=O)=O)cc(Nc2cccc(F)n2)nc1C [Example 67, 4-((4-cyclopropyl-2-(N-methylmethanesulfonamido)phenyl)amino)-6-((6-fluoropyridin-2-yl)amino)-N-methoxy-2-methyl nicotinamide] | > 10 | > 10 | 
CCNC(=O)c1cnc(NC(=O)C2CC2)cc1Nc1cccc(-c2cnn(C)c2)c1OC [Example 71, 6-(cyclopropylcarboxamido)-N-ethyl-4-((2-methoxy-3-(1-methyl-1H-pyrazol-4-yl)phenyl)amino)nicotinamide] | > 10 | > 10 | 
CONC(=O)c1cnc(Nc2ccc(S(C)(=O)=O)cc2)cc1Nc1cccc(-c2cnn(C)c2)c1OC [Example 72, N-methoxy-4-((2-methoxy-3-(1-methyl-1H-pyrazol-4-yl)phenyl)amino)-6-((4-(methanesulfonyl)phenyl)amino)nicotinamide] | > 10 | > 10 | 
CONC(=O)c1cnc(NC(=O)C2CC2)cc1Nc1ccccc1P(C)(C)=O [Example 73, 6-(cyclopropylcarboxamido)-4-((2-(dimethylphosphoryl)phenyl)amino)-N-methoxy nicotinamide] | > 10 | > 10 | 
CONC(=O)c1cnc(Nc2cccc(F)n2)cc1Nc1ccccc1P(C)(C)=O [Example 74, 4-((2-(dimethylphosphoryl)phenyl)amino)-6-((6-fluoropyridin-2-yl)amino)-N-methoxy nicotinamide] | > 10 | > 10 | 
CONC(=O)c1cnc(NC(=O)C2CC2)cc1Nc1cccc(Cl)c1N(C)S(C)(=O)=O [Example 75, 4-((3-chloro-2-(N-methylmethanesulfonamido)phenyl)amino)-6-(cyclopropylcarboxamido)-N-methoxy nicotinamide] | > 10 | > 10 | 
CONC(=O)c1cnc(Nc2cccc(F)n2)cc1Nc1cccc(Cl)c1N(C)S(C)(=O)=O [Example 76, 4-((3-chloro-2-(N-methylmethanesulfonamido)phenyl)amino)-6-((6-fluoropyridin-2-yl)amino)-N-methoxy nicotinamide] | > 10 | > 10 | 
CONC(=O)c1cnc(Nc2ccc(F)cn2)cc1Nc1cccc(Cl)c1N(C)S(C)(=O)=O [Example 77, 4-((3-chloro-2-(N-methylmethanesulfonamido)phenyl)amino)-6-((5-fluoropyridin-2-yl)amino)-N-methoxy nicotinamide] | > 10 | > 10 | 
CONC(=O)c1cnc(Nc2cccnc2OC)cc1Nc1cccc(Cl)c1N(C)S(C)(=O)=O [Example 78, 4-((3-chloro-2-(N-methylmethanesulfonamido)phenyl)amino)-N-methoxy-6-((2-methoxypyridin-3-yl)amino)nicotinamide] | > 10 | > 10 | 
CONC(=O)c1cnc(NC(=O)C2CC2)cc1Nc1cccc(C(F)(F)F)c1N(C)S(C)(=O)=O [Example 82, 6-(cyclopropylcarboxamido)-N-methoxy-4-((2-(N-methylmethanesulfonamido)-3-(trifluoromethyl)phenyl)amino)nicotinamide] | > 10 | > 10 | 
CONC(=O)c1cnc(Nc2cccc(F)n2)cc1Nc1cccc(C(F)(F)F)c1N(C)S(C)(=O)=O [Example 83, 6-((6-fluoropyridin-2-yl)amino)-N-methoxy-4-((2-(N-methylmethanesulfonamido)-3-(trifluoromethyl)phenyl)amino)nicotinamide] | > 10 | > 10 | 
CONC(=O)c1cnc(Nc2ccc(F)cn2)cc1Nc1cccc(C(F)(F)F)c1N(C)S(C)(=O)=O [Example 84, 6-((5-fluoropyridin-2-yl)amino)-N-methoxy-4-((2-(N-methylmethanesulfonamido)-3-(trifluoromethyl)phenyl)amino)nicotinamide] | > 10 | > 10 | 
CONC(=O)c1cnc(NC(=O)C2CC2)cc1Nc1cccc(C2CC2)c1N(C)S(C)(=O)=O [Example 85, 6-(cyclopropylcarboxamido)-4-((3-cyclopropyl-2-(N-methylmethanesulfonamido)phenyl)amino)-N-methoxy nicotinamide] | > 10 | > 10 | 
CONC(=O)c1cnc(Nc2cccc(F)n2)cc1Nc1cccc(C2CC2)c1N(C)S(C)(=O)=O [Example 86] | > 10 | > 10 | 
CONC(=O)c1cnc(NC(=O)C2CC2)cc1Nc1cccc(-c2cnn(C)c2)c1N(C)S(C)(=O)=O [Example 87, 6-(cyclopropylcarboxamido)-N-methoxy-4-((3-(1-methyl-1H-pyrazol-4-yl)-2-(N-methylmethanesulfonamido)phenyl)amino)nicotinamide] | > 10 | > 10 | 
CONC(=O)c1cnc(Nc2cccc(F)n2)cc1Nc1cccc(-c2cnn(C)c2)c1N(C)S(C)(=O)=O [Example 88, 6-((6-fluoropyridin-2-yl)amino)-N-methoxy-4-((3-(1-methyl-1H-pyrazol-4-yl)-2-(N-methylmethanesulfonamido)phenyl)amino)nicotinamide] | > 10 | > 10 | 
CONC(=O)c1cnc(NC(=O)C2CC2)cc1Nc1ccccc1S(C)(=O)=O [Example 89] | > 10 | > 10 | 
CN(c1ccccc1Nc1cc(NC(=O)C2CC2)ncc1C(=O)NOC(C)(C)C)S(C)(=O)=O [Example 91, N-(t-butoxy)-6-(cyclopropylcarboxamido)-4-((2-(N-methylmethanesulfonamido)phenyl)amino)nicotinamide] | > 10 | > 10 | 
CONC(=O)c1cnc(Nc2ccc(C(F)(F)F)cn2)cc1Nc1ccccc1N(C)S(C)(=O)=O [Example 92, N-methoxy-4-((2-(N-methylmethanesulfonamido)phenyl)amino)-6-((5-(trifluoromethyl)pyridin-2-yl)amino)nicotinamide] | > 10 | > 10 | 
CONC(=O)c1cnc(NC(=O)[C@H]2CC2(C)C)cc1Nc1ccc(C2CC2)cc1N(C)S(C)(=O)=O [Example 94, (S)-4-((4-cyclopropyl-2-(N-methylmethanesulfonamido)phenyl)amino)-6-(2,2-dimethylcyclopropyl-1-carboxamido)-N-methoxy nicotinamide] | > 10 | > 10 | 
CCONC(=O)c1cnc(Nc2ccccn2)cc1Nc1cc(F)c(C2CC2)cc1N(C)S(C)(=O)=O [Example 96, 4-((4-cyclopropyl-5-fluoro-2-(N-methylmethanesulfonamido)phenyl)amino)-N-ethoxy-6-(pyridin-2-ylamino)nicotinamide] | > 10 | > 10 | 
CCONC(=O)c1cnc(Nc2cc(C)c(F)cn2)cc1Nc1cc(F)c(C2CC2)cc1N(C)S(C)(=O)=O [Example 99, 4-((4-cyclopropyl-5-fluoro-2-(N-methylmethanesulfonamido)phenyl)amino)-N-ethoxy-6-((5-fluoro-4-methylpyridin-2-yl)amino)nicotinamide] | > 10 | > 10 | 
